The source of these data is the NIST ThermoML archive (doi:10.1016/j.fluid.2014.11.020).

This data set can be described thus: activity coefficient (dimensionless); of the first substance listed, at infinite dilution; xn = mol fraction of the nth substance listed. Particulars: Liquid, Chromatography, x1 = 0.

Numbers after ± are expanded uncertainties.

Turning to `CCCCCCCCCCCC` [dodecane] + N#C[N-]C#N.N#C[N-]C#N.c1ccc(Cn2cc[n+](COCCCOC[n+]3ccn(Cc4ccccc4)c3)c2)cc1, the activity coefficient reads like this: (323.15 K) 631 ± 43; (333.15 K) 634 ± 44; (343.15 K) 600 ± 41.

Take `c1ccccc1` [benzene] + CCCOC[n+]1ccn(Cc2ccccc2)c1.F[B-](F)(F)F: the activity coefficient is, setting by setting: (323.15 K) 2.01 ± 0.14; (333.15 K) 2 ± 0.14; (343.15 K) 1.99 ± 0.14.

As for `CC1CCCC1` [methylcyclopentane] + CCCCCCCCn1cc[n+](COCCC)c1C.N#C[N-]C#N, the activity coefficient is, setting by setting: (323.15 K) 4.37 ± 0.3; (333.15 K) 4.16 ± 0.28; (343.15 K) 4.16 ± 0.28.

With `c1ccsc1` [thiophene] + CN(C)c1cc[n+](COCCCOC[n+]2ccc(N(C)C)cc2)cc1.O=S(=O)([N-]S(=O)(=O)C(F)(F)F)C(F)(F)F.O=S(=O)([N-]S(=O)(=O)C(F)(F)F)C(F)(F)F, the activity coefficient stood at 0.55 ± 0.04 (323.15 K), 0.56 ± 0.04 (333.15 K) and 0.57 ± 0.04 (343.15 K).

As to `ClCCl` [dichloromethane] + CCCOC[n+]1ccn(C)c1.N#C[N-]C#N, the activity coefficient runs as follows: (323.15 K) 0.69 ± 0.05; (333.15 K) 0.74 ± 0.05; (343.15 K) 0.78 ± 0.05.

Consider `CC(C)OC(C)C` [diisopropyl ether] + CCCOC[n+]1ccc(N(C)C)cc1.O=S(=O)([N-]S(=O)(=O)C(F)(F)F)C(F)(F)F, for which the activity coefficient was determined as 4.49 ± 0.31 (323.15 K), 4.54 ± 0.31 (333.15 K) and 4.12 ± 0.28 (343.15 K).

In the case of `CC1CCCC1` [methylcyclopentane] + CCCOC[n+]1ccn(Cc2ccccc2)c1.N#C[N-]C#N, the activity coefficient came out at 15.7 ± 1.1 (323.15 K), 15.2 ± 1 (333.15 K) and 13.5 ± 0.92 (343.15 K).

On to `C#CCCCCC` [1-heptyne] + N#C[N-]C#N.N#C[N-]C#N.c1ccc(Cn2cc[n+](COCCCOC[n+]3ccn(Cc4ccccc4)c3)c2)cc1, for which the activity coefficient was 19.1 ± 1.3 (323.15 K), 17.2 ± 1.2 (333.15 K) and 15.9 ± 1.1 (343.15 K).

For the compound `CCC(C)CC` [3-methylpentane] + CCCCCCCCn1cc[n+](COCCC)c1C.N#C[N-]C#N, the activity coefficient reads like this: (323.15 K) 6.65 ± 0.45; (333.15 K) 5.7 ± 0.39; (343.15 K) 6.25 ± 0.43.

As to `CCO` [ethanol] + CCCCCCCCn1cc[n+](COCCC)c1C.O=S(=O)([N-]S(=O)(=O)C(F)(F)F)C(F)(F)F, the activity coefficient reads like this: (323.15 K) 1.12 ± 0.07; (333.15 K) 1.02 ± 0.06; (343.15 K) 0.94 ± 0.06.

`CCCCCC` [hexane] + Cn1cc[n+](COCCCOC[n+]2ccn(C)c2)c1.O=S(=O)([N-]S(=O)(=O)C(F)(F)F)C(F)(F)F.O=S(=O)([N-]S(=O)(=O)C(F)(F)F)C(F)(F)F: the activity coefficient reads like this: (323.15 K) 18.2 ± 1.2; (333.15 K) 31 ± 2.1.

On to `C[N+](=O)[O-]` [nitromethane] + CCCOC[n+]1ccn(Cc2ccccc2)c1.F[B-](F)(F)F, for which the activity coefficient reads like this: (323.15 K) 0.58 ± 0.04; (333.15 K) 0.57 ± 0.04; (343.15 K) 0.58 ± 0.04.

Turning to `C[N+](=O)[O-]` [nitromethane] + Cn1cc[n+](COCCCOC[n+]2ccn(C)c2)c1.N#C[N-]C#N.N#C[N-]C#N, the activity coefficient runs as follows: (323.15 K) 0.56 ± 0.04; (333.15 K) 0.56 ± 0.04; (343.15 K) 0.57 ± 0.04.

For `CCCCCCCCCCCC` [dodecane] + CCCCCCCCn1cc[n+](COCCCOC[n+]2ccn(CCCCCCCC)c2C)c1C.N#C[N-]C#N.N#C[N-]C#N, the activity coefficient (323.15 K) is 28.7 ± 2, the activity coefficient (333.15 K) stood at 30.6 ± 2.1 and the activity coefficient (343.15 K) amounted to 27.9 ± 1.9.

As for `CCC[N+](=O)[O-]` [1-nitropropane] + CCCCCCCCn1cc[n+](COCCCOC[n+]2ccn(CCCCCCCC)c2C)c1C.N#C[N-]C#N.N#C[N-]C#N, the activity coefficient (323.15 K) was found to be 0.59 ± 0.04, the activity coefficient (333.15 K) was found to be 0.58 ± 0.04 and the activity coefficient (343.15 K) stood at 0.58 ± 0.04.

For `C1CCCCCC1` [cycloheptane] + CCCOC[n+]1ccn(C)c1.O=S(=O)([N-]S(=O)(=O)C(F)(F)F)C(F)(F)F, the activity coefficient runs as follows: (323.15 K) 27.2 ± 1.9; (333.15 K) 35.8 ± 2.5; (343.15 K) 46.1 ± 3.2.

As for `CCCCCCCCCC` [decane] + CCCCCCCCn1cc[n+](COCCC)c1C.O=S(=O)([N-]S(=O)(=O)C(F)(F)F)C(F)(F)F, the activity coefficient is 8.9 ± 0.61 (323.15 K), 8.47 ± 0.58 (333.15 K) and 7.92 ± 0.54 (343.15 K).

As to `c1ccsc1` [thiophene] + CCCCCCCCn1cc[n+](COCCCOC[n+]2ccn(CCCCCCCC)c2C)c1C.O=S(=O)([N-]S(=O)(=O)C(F)(F)F)C(F)(F)F.O=S(=O)([N-]S(=O)(=O)C(F)(F)F)C(F)(F)F, the activity coefficient worked out at 0.38 ± 0.03 (323.15 K), 0.37 ± 0.03 (333.15 K) and 0.38 ± 0.03 (343.15 K).

Consider `Cc1ccccc1` [toluene] + Cn1cc[n+](COCCCOC[n+]2ccn(C)c2)c1.N#C[N-]C#N.N#C[N-]C#N, for which the activity coefficient is, setting by setting: (323.15 K) 5.63 ± 0.38; (333.15 K) 5.58 ± 0.38; (343.15 K) 5.49 ± 0.37.

On to `CCCCO` [butan-1-ol] + Cn1cc[n+](COCCCOC[n+]2ccn(C)c2)c1.O=S(=O)([N-]S(=O)(=O)C(F)(F)F)C(F)(F)F.O=S(=O)([N-]S(=O)(=O)C(F)(F)F)C(F)(F)F, for which the activity coefficient was determined as 2.02 ± 0.14 (323.15 K), 1.85 ± 0.12 (333.15 K) and 1.64 ± 0.11 (343.15 K).

As to `CCCCCCCCCCC` [undecane] + Cn1cc[n+](COCCCOC[n+]2ccn(C)c2)c1.N#C[N-]C#N.N#C[N-]C#N, the activity coefficient is, setting by setting: (323.15 K) 938 ± 65; (333.15 K) 899 ± 62; (343.15 K) 797 ± 55.

Regarding `CCC(=O)CC` [pentan-3-one] + Cn1cc[n+](COCCCOC[n+]2ccn(C)c2)c1.N#C[N-]C#N.N#C[N-]C#N, the activity coefficient was found to be 3.39 ± 0.23 (323.15 K), 3.49 ± 0.24 (333.15 K) and 3.46 ± 0.24 (343.15 K).

In the case of `c1ccccc1` [benzene] + CCCOC[n+]1ccc(N(C)C)cc1.O=S(=O)([N-]S(=O)(=O)C(F)(F)F)C(F)(F)F, the activity coefficient runs as follows: (323.15 K) 0.74 ± 0.05; (333.15 K) 0.78 ± 0.05; (343.15 K) 0.78 ± 0.05.

Turning to `C1CCCCCC1` [cycloheptane] + CCCCCCCCn1cc[n+](COCCC)c1C.O=S(=O)([N-]S(=O)(=O)C(F)(F)F)C(F)(F)F, the activity coefficient was 6.43 ± 0.44 (323.15 K), 8.72 ± 0.6 (333.15 K) and 11.5 ± 0.78 (343.15 K).

In the case of `C[N+](=O)[O-]` [nitromethane] + CCCOC[n+]1ccn(C)c1.O=S(=O)([N-]S(=O)(=O)C(F)(F)F)C(F)(F)F, the activity coefficient came out at 0.55 ± 0.04 (323.15 K), 0.53 ± 0.04 (333.15 K) and 0.53 ± 0.04 (343.15 K).

Consider `C1CCCCCC1` [cycloheptane] + N#C[N-]C#N.N#C[N-]C#N.c1ccc(Cn2cc[n+](COCCCOC[n+]3ccn(Cc4ccccc4)c3)c2)cc1, for which the activity coefficient reads like this: (323.15 K) 117 ± 8; (333.15 K) 139 ± 9.6; (343.15 K) 171 ± 12.

With `C1COCCO1` [1,4-dioxane] + CCCCCCCCn1cc[n+](COCCCOC[n+]2ccn(CCCCCCCC)c2C)c1C.O=S(=O)([N-]S(=O)(=O)C(F)(F)F)C(F)(F)F.O=S(=O)([N-]S(=O)(=O)C(F)(F)F)C(F)(F)F, the activity coefficient reads like this: (323.15 K) 0.28 ± 0.03; (333.15 K) 0.27 ± 0.03; (343.15 K) 0.28 ± 0.03.

As to `C#CCCCC` [1-hexyne] + CCCOC[n+]1ccn(Cc2ccccc2)c1.O=S(=O)([N-]S(=O)(=O)C(F)(F)F)C(F)(F)F, the activity coefficient was 2.14 ± 0.15 (323.15 K) and 2.35 ± 0.16 (333.15 K).

As to `CCc1ccccc1` [ethylbenzene] + CCCOC[n+]1ccn(C)c1.O=S(=O)([N-]S(=O)(=O)C(F)(F)F)C(F)(F)F, the activity coefficient amounted to 2.55 ± 0.17 (323.15 K), 2.51 ± 0.17 (333.15 K) and 2.51 ± 0.17 (343.15 K).

Take `C1CCCCCC1` [cycloheptane] + CCCOC[n+]1ccn(Cc2ccccc2)c1.O=S(=O)([N-]S(=O)(=O)C(F)(F)F)C(F)(F)F: the activity coefficient runs as follows: (323.15 K) 13.4 ± 0.91; (333.15 K) 15.8 ± 1.1; (343.15 K) 20.5 ± 1.4.

As to `ClC(Cl)(Cl)Cl` [tetrachloromethane] + CCCCCCCCn1cc[n+](COCCC)c1C.O=S(=O)([N-]S(=O)(=O)C(F)(F)F)C(F)(F)F, the activity coefficient (323.15 K) was found to be 1.21 ± 0.08, the activity coefficient (333.15 K) is 1.19 ± 0.08 and the activity coefficient (343.15 K) came out at 1.24 ± 0.08.

As to `CC(C)OC(C)C` [diisopropyl ether] + CCCOC[n+]1ccn(C)c1.O=S(=O)([N-]S(=O)(=O)C(F)(F)F)C(F)(F)F, the activity coefficient by setting is: (323.15 K) 4.69 ± 0.32; (333.15 K) 4.82 ± 0.33; (343.15 K) 4.46 ± 0.3.

Regarding `CC1CCCC1` [methylcyclopentane] + CN(C)c1cc[n+](COCCCOC[n+]2ccc(N(C)C)cc2)cc1.O=S(=O)([N-]S(=O)(=O)C(F)(F)F)C(F)(F)F.O=S(=O)([N-]S(=O)(=O)C(F)(F)F)C(F)(F)F, the activity coefficient was found to be 11 ± 0.75 (323.15 K), 9.51 ± 0.65 (333.15 K) and 9 ± 0.61 (343.15 K).

For `C#CCCCCC` [1-heptyne] + CCCCCCCCn1cc[n+](COCCCOC[n+]2ccn(CCCCCCCC)c2C)c1C.N#C[N-]C#N.N#C[N-]C#N, the activity coefficient was 2.1 ± 0.14 (323.15 K), 2.12 ± 0.14 (333.15 K) and 2.15 ± 0.15 (343.15 K).

For the compound `c1ccncc1` [pyridine] + Cn1cc[n+](COCCCOC[n+]2ccn(C)c2)c1.N#C[N-]C#N.N#C[N-]C#N, the activity coefficient runs as follows: (323.15 K) 1 ± 0.06; (333.15 K) 1.01 ± 0.06; (343.15 K) 1.04 ± 0.07.

Turning to `Cc1ccccc1` [toluene] + CCCOC[n+]1ccn(Cc2ccccc2)c1.O=S(=O)([N-]S(=O)(=O)C(F)(F)F)C(F)(F)F, the activity coefficient is, setting by setting: (323.15 K) 1.09 ± 0.07; (333.15 K) 0.97 ± 0.06; (343.15 K) 0.96 ± 0.06.

For the compound `CCCC(C)=O` [pentan-2-one] + CN(C)c1cc[n+](COCCCOC[n+]2ccc(N(C)C)cc2)cc1.O=S(=O)([N-]S(=O)(=O)C(F)(F)F)C(F)(F)F.O=S(=O)([N-]S(=O)(=O)C(F)(F)F)C(F)(F)F, the activity coefficient by setting is: (323.15 K) 0.69 ± 0.05; (333.15 K) 0.7 ± 0.05; (343.15 K) 0.71 ± 0.05.
